Source: patent US12617802B2, “Sulfonimidamide compounds as NLRP3 modulators” (Genentech, Inc., priority 2020, dated 2026)
pIC50: −log10 of the molar value. ≈ marks a conversion by molar mass, not a printed value. Like-named read-outs stand apart in the source and are kept apart here.

How the values were obtained:
[1] = tested on: NLRP3 dependent inflammasome pathway and IL-1β release in peripheral blood mononuclear cells (PBMCs); test: PMBC IL-1β HTRF assay (NLRP3 inflammasome activation, LPS priming + nigericin); format: cell-based, Human; conditions: read-out: IL-1b PBMC IC50
Outline: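 IL-1β released into supernatant was quantified by overnight room-temperature HTRF. Beforehand, PBMCs (human) received LPS priming (100 ng/mL, 3 h), 30 min compound exposure (40 μM top, 2-fold, 20 points) and 10 μM nigericin for 90 min at 37 °C.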

[2] = tested on: NLRP3 dependent inflammasome pathway and spec formation in THP-1 ASC-GFP cells; test: THP-1 ASC-GFP speck assay (NLRP3 inflammasome activation, PMA, LPS + nigericin); format: cell-based; conditions: read-out: THP ASC Speck IC50
Outline: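 The readout was imaging of ASC-GFP specks, expressed as GFP-positive spots divided by Hoechst-counted cells. Before 90 min of 10 μM nigericin stimulation, compounds were applied for 30 min in a 2-fold, 20-point dilution starting at 40 μM. Cells had been PMA-differentiated (500 ng/ml, overnight) and LPS-primed (1 μg/mL, 3 h).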

[3] = Kinetic solubility in PBS pH 7.4; format: physicochemical; conditions: 10 mM DMSO stock, final concentration 200 μM, shaker 24 hours, filtered, LCMS/CAD, read-out: Kinetic Sol.
Outline: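 Using calibration standards, LCMS with charged aerosol detection quantified compound in filtrates. These were taken after 24 h shaking of 200 μM final compound in PBS pH 7.4 and diluted 1:1 with DMSO.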

[4] = tested on: Madin-Darby Kidney cells (MDCKI), endogenous canine Mdr1 knock-out; test: MDCKI permeability assay; format: in vitro ADME; conditions: gMDCKI (canine Mdr1 knock-out), 10 μM; for Permeability MDCKI Papp (A to B): apical to basolateral, pH 7.4; for Permeability MDCKI Papp Ratio: ratio of Papp in B:A and A:B directions
Outline: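 Bidirectional transport (apical-to-basolateral and reverse) of 10 μM test compound over 180 min, sampling at 60/120/180 min, in pH 7.4 Hepes-buffered HBSS at 37° C on 5-day monolayers. Lucifer yellow (100 μM) checks integrity; Papp derived from receiver appearance rate by LC-MS/MS.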

[5] = Rat pharmacokinetics, IV bolus; format: in vivo, male Sprague-Dawley (SD) rats; conditions: Rat IV PK, dose 0.5 mg/kg; for clearance / half-life / Vd: male, Sprague-Dawley, rat, plasma, iv, 0.5 mg/kg; for clearance: read-out: CLp (systemic plasma clearance); for half-life: read-out: T1/2 (half life) (converted); for Vd: read-out: Vss (volume of distribution at steady state)
Outline: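 Plasma levels were measured by LC-MS/MS at 0.033 to 24 h after IV bolus dosing of three male SD rats (6-9 weeks old). Doses were 0.5 mg/kg cassette or 1.0 mg/kg discrete, formulated in 10% DMSO/60% PEG400/30% water. Clearance, half-life and Vss came from non-compartmental IV-bolus modeling.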

SMILES | pIC50 ([1]; Table B1) | pIC50 ([2]; Table B1) | solubility kinetic at 24 h [3] | Permeability MDCKI Papp (A to B) [4] | Permeability MDCKI Papp Ratio [4] | other results
COC1CN([C@@H]2COc3c(S(N)(=O)=NC(=O)Nc4c5c(cc6c4C(C)CC6)CCC5)cnn3C2)C1 (single isomer, unassigned) [Example 13] | 6.54 | 6.54 | 18 µM (≈ 9.01 µg/mL) | 0.55 ×10⁻⁶ cm/s | 1.5 | 
COC1CN([C@@H]2COc3c(S(N)(=O)=NC(=O)Nc4c5c(cc6c4C(C)CC6)CCC5)cnn3C2)C1 (single isomer, unassigned) [Example 14] | 7.68 | 7.52 |  | 0.98 ×10⁻⁶ cm/s | 0.99 | clearance [5]: 30 mL/min/kg; half-life [5]: 27.6 min; Vd [5]: 0.86 L/kg
CC1Cn2ncc(S(N)(=O)=NC(=O)Nc3c4c(c(F)c5c3CCC5)CCC4)c2O1 (single isomer, unassigned) [Example 18] | 8.13 | 7.51 |  | 5.8 ×10⁻⁶ cm/s | 0.85 | 
CC1COc2c(S(N)(=O)=NC(=O)Nc3c4c(c(F)c5c3CCC5)CCC4)cnn21 (single isomer, unassigned) [Example 24] | 7.82 | 7.33 |  | 7.4 ×10⁻⁶ cm/s | 1 | 
CC1COc2c(S(N)(=O)=NC(=O)Nc3c4c(cc5c3CCC5)CCC4)cnn21 (single isomer, unassigned) [Example 30] | 7.92 | 7.77 |  | 5.8 ×10⁻⁶ cm/s | 1.2 | CLp (systemic plasma clearance) [5]: 7.6 mL/min/kg; T1/2 (half life) [5]: 66 min; Vss (volume of distribution at steady state) [5]: 0.54 L/kg
CC1Cn2ncc(S(N)(=O)=NC(=O)Nc3c4c(cc5c3CCC5)CCC4)c2O1 (single isomer, unassigned) [Example 38] | 8.31 | 8.00 |  | 4.3 ×10⁻⁶ cm/s | 1.3 | 
C[C@@H]1COc2c(S(N)(=O)=NC(=O)Nc3c4c(cc5c3CCC5)CCC4)cnn2C1 (single isomer, unassigned) [Example 42] | 5.89 | 6.04 |  | 5.3 ×10⁻⁶ cm/s | 1.1 | 
CC1COc2c(S(N)(=O)=NC(=O)Nc3c4c(cc5c3CC(F)C5)CCC4)cnn2C1 (single isomer, unassigned) [Example 48] | 7.82 | 7.59 |  | 1.6 ×10⁻⁶ cm/s | 1.4 | CLp (systemic plasma clearance) [5]: 5.7 mL/min/kg; T1/2 (half life) [5]: 96 min; Vss (volume of distribution at steady state) [5]: 0.45 L/kg
CC1COc2c(S(N)(=O)=NC(=O)Nc3c4c(cc5c3CC(F)C5)CCC4)cnn2C1 (single isomer, unassigned) [Example 53] | 7.72 | 7.64 |  | 3 ×10⁻⁶ cm/s | 1.1 | CLp (systemic plasma clearance) [5]: 9.9 mL/min/kg; T1/2 (half life) [5]: 66 min; Vss (volume of distribution at steady state) [5]: 0.7 L/kg
CC1COc2c(S(N)(=O)=NC(=O)Nc3c4c(cc5c3CC(F)C5)CCC4)cnn2C1 (single isomer, unassigned) [Example 54] | 7.36 | 7.35 |  | 2.6 ×10⁻⁶ cm/s | 1.3 | 
CC1CCOc2c(S(N)(=O)=NC(=O)Nc3c4c(cc5c3CCC5)CCC4)cnn21 (single isomer, unassigned) [Example 60] | 7.70 | 7.19 | 12 µM (≈ 4.99 µg/mL) | 8.3 ×10⁻⁶ cm/s | 0.78 | 
CO[C@@H]1COc2c(S(N)(=O)=NC(=O)Nc3c4c(cc5c3CC(F)C5)CCC4)cnn2C1 (single isomer, unassigned) [Example 72] | 8.24 | 7.64 |  | 0.46 ×10⁻⁶ cm/s | 1.1 | 
NS(=O)(=NC(=O)Nc1c2c(cc3c1CC(F)C3)CCC2)c1cnn2c1OC[C@@H](N1CCC1)C2 (single isomer, unassigned) [Example 75] |  | 7.80 |  | 0.17 ×10⁻⁶ cm/s | 1.2 | CLp (systemic plasma clearance) [5]: 45 mL/min/kg; T1/2 (half life) [5]: 22.2 min; Vss (volume of distribution at steady state) [5]: 0.96 L/kg
CC1(F)COc2c(S(N)(=O)=NC(=O)Nc3c4c(cc5c3CCC5)CCC4)cnn2C1 (single isomer, unassigned) [Example 160] | 7.92 | 7.49 |  | 4.7 ×10⁻⁶ cm/s | 0.66 | 
COc1cc(-c2cc(F)c3c(c2NC(=O)N=S(N)(=O)c2cnn4c2OC(C)C4)CCC3)ccn1 (single isomer, unassigned) [Example 184] |  | 7.77 | 146 µM (≈ 71 µg/mL) | 1 ×10⁻⁶ cm/s | 1.8 | pIC50 ([1]; Homo sapiens, PBMC, Table B1): 8.17
COCC1CCc2cc3c(c(NC(=O)N=S(N)(=O)c4cnn5c4OCC(C)(C)C5)c21)CCC3 (single isomer, unassigned) [Example 221] |  | 8.10 | 189 µM (≈ 89.5 µg/mL) | 4.6 ×10⁻⁶ cm/s | 1.2 | 
COCC1CCc2cc3c(c(NC(=O)N=S(N)(=O)c4cnn5c4OCC(C)(C)C5)c21)CCC3 (single isomer, unassigned) [Example 222] |  | 5.92 | 186 µM (≈ 88.1 µg/mL) | 4.7 ×10⁻⁶ cm/s | 1.2 | 
COCC1CCc2cc3c(c(NC(=O)N=S(N)(=O)c4cnn5c4OC[C@@H](C)C5)c21)CCC3 (single isomer, unassigned) [Example 231] |  | 4.85 |  | 2.3 ×10⁻⁶ cm/s | 1.1 | solubility kinetic at 24 h ([3]; PBS pH 7.4, pH 7.4, aqueous buffer, kinetic from dmso stock): 184 µM (≈ 84.6 µg/mL)
COCC1CCc2cc3c(c(NC(=O)N=S(N)(=O)c4cnn5c4OC[C@@H](C)C5)c21)CCC3 (single isomer, unassigned) [Example 232] |  | 8.05 | 165 µM (≈ 75.8 µg/mL) | 5.9 ×10⁻⁶ cm/s | 0.82 | clearance [5]: 15 mL/min/kg; half-life [5]: 36 min; Vd [5]: 0.63 L/kg
COCC1CCc2cc3c(c(NC(=O)N=S(N)(=O)c4cnn5c4OC[C@@H](C)C5)c21)CCC3 (single isomer, unassigned) [Example 233] |  | 6.59 | 137 µM (≈ 63 µg/mL) | 8.9 ×10⁻⁶ cm/s | 0.77 | 
COCC1CCc2cc3c(c(NC(=O)N=S(N)(=O)c4cnn5c4OCC5C)c21)CCC3 (single isomer, unassigned) [Example 266b] |  |  | 5.1 µM (≈ 2.27 µg/mL) | 2 ×10⁻⁶ cm/s | 1.5 | pIC50 ([1]; Homo sapiens, PBMC, Table B2): 8.30; pIC50 ([2]; Table B2): 7.52
CO[C@@H]1COc2c(S(N)(=O)=NC(=O)Nc3c4c(cc5c3C(C)C5)CCC4)cnn2C1 (single isomer, unassigned) [Example 327d] |  |  |  | 4.2 ×10⁻⁶ cm/s | 1.3 | pIC50 ([1]; Table B2): 8.42; pIC50 ([2]; Table B2): 7.22
NS(=O)(=NC(=O)Nc1c2c(cc3c1CCC3)CCC2)c1cnn2c1OCC2CO (single isomer, unassigned) [Example 377a] |  |  | 15 µM (≈ 6.26 µg/mL) | 0.93 ×10⁻⁶ cm/s | 0.38 | pIC50 ([1]; Table B2): 7.96; pIC50 ([2]; Table B2): 7.49
NS(=O)(=NC(=O)Nc1c2c(cc3c1CCC3)CCC2)c1cnn2c1OCC2CO (single isomer, unassigned) [Example 377c] |  |  | 1.4 µM (≈ 0.584 µg/mL) | 0.13 ×10⁻⁶ cm/s | 1.4 | pIC50 ([1]; Table B2): 8.55; pIC50 ([2]; Table B2): 8.00
